US20130059783A1, “COMPOSITIONS AND METHODS FOR EXPANDING BFU-E CELLS” (priority 2010, published 2013)

Columns and labels:
Type in all cases: cell-based, mouse
BFU-E cells [1] = assay: Single BFU-E cell culture in SFELE medium
Method: FIGS. 1A-1F. Glucocorticoids stimulate stress erythropoiesis by enhancing erythroblast output predominantly from BFU-E progenitors. […] Error bars show one standard deviation. […] Error bars show one standard deviation. […] Shown is the fraction of c-kit+ cells after 72 hours. […] Cell numbers in each clone were estimated under the microscope on Day 8. 80% of sorted BFU-E cells form more than 100 daughter cells in erythroid expansion culture.
The “BFU-E” cell population that contains the GC-responsive cells, while highly enriched for BFU-Es, is a heterogeneous mix of erythroid progenitors. In order to determine the effect of GCs at the single cell level, we performed single “BFU-E” cell culture experiments (FIG. 1E).

BFU-E cells [2] = assay: CFU-E and BFU-E colony forming assays of BFU-E cells cultured in SFELE medium; settings: for Total colony numbers from 1,000 "BFU-E" cells: CFU-E 1 cluster / Total colony numbers from 1,000 "BFU-E" cells: large BFU-E >20 clusters / Total colony numbers from 1,000 "BFU-E" cells: small BFU-E 5-20 clusters: CD24 and CD71 10% low BFU-E cells, SFELE, 100 nM Dex and/or 333 μM DMOG; for Total colony numbers from 1000 BFU-E cells: Large BFU-E / Total colony numbers from 1000 BFU-E cells: Single CFU-E / Total colony numbers from 1000 BFU-E cells: Small BFU-E: CD71 10% low BFU-E cells, SFELE with 100 nM Dex
Method: Dexamethasone prevents BFU-E cell exhaustion, which allows more CFU-E cells to be formed. […] (A) The total number of cells formed from 1000 BFU-E cells at different time points. […] Standard deviation between four separate biological experiments is shown in parenthesis (n/d=not determined).
At daily intervals colony assays were performed (Table 2). As in the experiment in FIG. 3, for the first three days the total number of cells increased at the same rate in all cultures.
(§1) Colonies were scored after 3 days. […] The number of hemoglobinized early BFU-E and late BFU-E colonies was determined after 8-9 days following staining with 2,7-Diaminofluorene (Sigma Chemical, St. Louis, Mo.).

[3] = test system: fetal liver erythroid progenitor (FLEP) cells; assay: Colony forming assays of magnetically depleted fetal liver cells (Table S1)
Method: The negatively enriched cell populations were subjected to colony forming assays under two different conditions. […] CFU-E colonies were counted 3 days later. […] These cells were cultured 8-9 days before late BFU-E, early BFU-E, CFU-G/M/Mk (granulocyte, monocyte, megakaryocyte), and CFU-GEMM (granulocyte, erythrocyte, monocyte, megakaryocyte) colonies were scored. BFU-Es consisting of a cluster of only 5-20 CFU-Es were scored as late, while larger BFU-Es were scored as early. 2,7-fluorenediamine was used to stain hemoglobin-containing colonies in the plates. […] Standard deviation between experiments is shown in parenthesis.
The first step towards enrichment of BFU-E and CFU-E cells was to remove more mature blood cells from single cell suspensions of fetal livers by magnetic column depletion. We stained fetal liver cells with a panel of biotin labeled anti-lineage (Lin) antibodies (Ter119, B220, Mac-1, CD3 and Gr-1), followed by anti-biotin tetramer and magnetic colloid labeling. All positive cells were depleted using magnetic columns.
as §1

[4] = CD71 10% low cells, SFELE with Dex, Day 3
[5] = Day 3 of culture, 100 nM Dex or 333 μM DMOG alone
[6] = Lin− fetal liver cells, EPO, SCF, IL-3, IL-6, 100 nM Dex
[7] = Lin−, CD32/16− cells, 100 nM Dex
[8] = Lin−, CD32/16−, Sca-1− cells, 100 nM Dex
[9] = Lin−, CD32/16−, Sca-1−, CD41− cells, 100 nM Dex
[10] = Lin−, CD32/16−, Sca-1−, CD41−, CD34− (FLEP cells), 100 nM Dex

C[C@@H]1C[C@H]2[C@@H]3CCC4=CC(=O)C=C[C@]4(C)[C@@]3(F)[C@@H](O)C[C@]2(C)[C@@]1(O)C(=O)CO [Dex, dexamethasone]
Erythroblasts generated by individual BFU-E cells (BFU-E cells [1]; day 8, 100 nM Dex): more than 300,000 erythroblasts
Cell divisions performed by some BFU-E cells (BFU-E cells [1]; in 8 days, 100 nM Dex): more than 18 cell divisions
Additional cell divisions allowed (BFU-E cells [1]; single cell level, 100 nM Dex versus without Dex): more than 6 cell divisions
Total colony numbers from 1,000 "BFU-E" cells: CFU-E 1 cluster (BFU-E cells [2]; day 0 (before culture)): 30 (±11)
Total colony numbers from 1,000 "BFU-E" cells: large BFU-E >20 clusters (BFU-E cells [2]; day 0 (before culture)): 423 (±31)
Total colony numbers from 1,000 "BFU-E" cells: small BFU-E 5-20 clusters (BFU-E cells [2]; day 0 (before culture)): 262 (±64)
Total colony numbers from 1,000 "BFU-E" cells: CFU-E 1 cluster (BFU-E cells [2]; day 1): 424 (±271)
Total colony numbers from 1,000 "BFU-E" cells: large BFU-E >20 clusters (BFU-E cells [2]; day 1): 463 (±61)
Total colony numbers from 1,000 "BFU-E" cells: small BFU-E 5-20 clusters (BFU-E cells [2]; day 1): 1,766 (±695)
Total colony numbers from 1,000 "BFU-E" cells: CFU-E 1 cluster (BFU-E cells [2]; day 2): 11,468 (±1,088)
Total colony numbers from 1,000 "BFU-E" cells: large BFU-E >20 clusters (BFU-E cells [2]; day 2): 482 (±110)
Total colony numbers from 1,000 "BFU-E" cells: small BFU-E 5-20 clusters (BFU-E cells [2]; day 2): 5,771 (±1,625)
Total colony numbers from 1,000 "BFU-E" cells: CFU-E 1 cluster (BFU-E cells [2]; day 3): 60,699 (±22,369)
Total colony numbers from 1,000 "BFU-E" cells: large BFU-E >20 clusters (BFU-E cells [2]; day 3): 400 (±108)
Total colony numbers from 1,000 "BFU-E" cells: small BFU-E 5-20 clusters (BFU-E cells [2]; day 3): 8,334 (±2,489)
Total colony numbers from 1,000 "BFU-E" cells: CFU-E 1 cluster (BFU-E cells [2]; day 4): 138,600 (±24,546)
Total colony numbers from 1,000 "BFU-E" cells: CFU-E 1 cluster (BFU-E cells [2]; day 5): 261,550 (±98,160)
Total colony numbers from 1,000 "BFU-E" cells: large BFU-E >20 clusters (BFU-E cells [2]; day 5): 0
Total colony numbers from 1,000 "BFU-E" cells: small BFU-E 5-20 clusters (BFU-E cells [2]; day 5): 10,271 (±3,344)
Total colony numbers from 1,000 "BFU-E" cells: CFU-E 1 cluster (BFU-E cells [2]; day 6): 249,160 (±55,172)
Total colony numbers from 1,000 "BFU-E" cells: CFU-E 1 cluster (BFU-E cells [2]; day 7 (performed twice)): 176,000 (±15,556)
Total colony numbers from 1,000 "BFU-E" cells: CFU-E 1 cluster (BFU-E cells [2]; day 8 (performed twice)): 66,000 (±56,003)
Total colony numbers from 1000 BFU-E cells: Large BFU-E (BFU-E cells [2]; 0 h (before culture)): 241 (±79)
Total colony numbers from 1000 BFU-E cells: Single CFU-E (BFU-E cells [2]; 0 h (before culture)): 73 (±26)
Total colony numbers from 1000 BFU-E cells: Small BFU-E (BFU-E cells [2]; 0 h (before culture)): 277 (±89)
Total colony numbers from 1000 BFU-E cells: Large BFU-E (BFU-E cells [2]; 24 h): 181 (±132)
Total colony numbers from 1000 BFU-E cells: Single CFU-E (BFU-E cells [2]; 24 h): 1,164 (±593)
Total colony numbers from 1000 BFU-E cells: Small BFU-E (BFU-E cells [2]; 24 h): 1,568 (±604)
Total colony numbers from 1000 BFU-E cells: Large BFU-E (BFU-E cells [2]; 48 h): 130 (±53)
Total colony numbers from 1000 BFU-E cells: Single CFU-E (BFU-E cells [2]; 48 h): 25,342 (±5,714)
Total colony numbers from 1000 BFU-E cells: Small BFU-E (BFU-E cells [2]; 48 h): 6,730 (±515)
Total colony numbers from 1000 BFU-E cells: Large BFU-E (BFU-E cells [2]; 72 h): 150 (±58)
Total colony numbers from 1000 BFU-E cells: Single CFU-E (BFU-E cells [2]; 72 h): 122,413 (±14,086)
Total colony numbers from 1000 BFU-E cells: Small BFU-E (BFU-E cells [2]; 72 h): 15,350 (±3,838)
Total colony numbers from 1000 BFU-E cells: Single CFU-E (BFU-E cells [2]; 120 h): 904,050 (±434,778)
Late BFU-Es per initial sorted BFU-E cell (BFU-E cells [2]; CD71 10% low cells, SFELE with Dex, Day 2): 67
CFU-Es formed per BFU-E (BFU-E cells [2]; [4]): 122
Late BFU-Es per initial sorted BFU-E cell (BFU-E cells [2]; [4]): 153
BFU-Es per plated BFU-E (BFU-E cells [2]; [5]): 8.7
CFU-Es per plated BFU-E (BFU-E cells [2]; [5]): 51
Increase of number of CFU-E cells between Days 3 and 5 (BFU-E cells [2]; cultures with Dex): 7.3 fold
CFU-G/M/Meg colonies, scored day 8-9 [3, 6]: 25 (±5) colonies per 1000 plated cells
GEMM colonies, scored day 8-9 [3, 6]: 7 (±4) colonies per 1000 plated cells
early BFU-E colonies, scored day 8-9 [3, 6]: 39 (±12) colonies per 1000 plated cells
late BFU-E colonies, scored day 8-9 [3, 6]: 53 (±13) colonies per 1000 plated cells
CFU-E colonies, scored day 3 ([3]; Lin− fetal liver cells, methylcellulose 10U EPO/mL, 100 nM Dex): 472 (±79) colonies per 1000 plated cells
CFU-G/M/Meg colonies, scored day 8-9 [3, 7]: 17 (±10) colonies per 1000 plated cells
GEMM colonies, scored day 8-9 [3, 7]: 5 (±2) colonies per 1000 plated cells
early BFU-E colonies, scored day 8-9 [3, 7]: 37 (±12) colonies per 1000 plated cells
late BFU-E colonies, scored day 8-9 [3, 7]: 69 (±14) colonies per 1000 plated cells
CFU-E colonies, scored day 3 ([3]; Lin−, CD32/16− fetal liver cells, 10U EPO/mL, 100 nM Dex): 560 (±245) colonies per 1000 plated cells
CFU-G/M/Meg colonies, scored day 8-9 [3, 8]: 7 (±3) colonies per 1000 plated cells
GEMM colonies, scored day 8-9 [3, 8]: 0.2 (±0.3) colonies per 1000 plated cells
early BFU-E colonies, scored day 8-9 [3, 8]: 24 (±5) colonies per 1000 plated cells
late BFU-E colonies, scored day 8-9 [3, 8]: 110 (±10) colonies per 1000 plated cells
CFU-G/M/Meg colonies, scored day 8-9 [3, 9]: 9 (±12) colonies per 1000 plated cells
GEMM colonies, scored day 8-9 [3, 9]: 0.3 (±0.4) colonies per 1000 plated cells
early BFU-E colonies, scored day 8-9 [3, 9]: 10 (±4) colonies per 1000 plated cells
late BFU-E colonies, scored day 8-9 [3, 9]: 142 (±77) colonies per 1000 plated cells
CFU-G/M/Meg colonies, scored day 8-9 [3, 10]: 4 (±6) colonies per 1000 plated cells
GEMM colonies, scored day 8-9 [3, 10]: 0.3 (±0.5) colonies per 1000 plated cells
early BFU-E colonies, scored day 8-9 [3, 10]: 23 (±17) colonies per 1000 plated cells
late BFU-E colonies, scored day 8-9 [3, 10]: 141 (±84) colonies per 1000 plated cells
